Where a name gives a salt, the structure may show the parent alone.
What was measured:
[1] = molecular target: histone deacetylase (HeLa nuclear extracts); experiment: In vitro assay for inhibition of histone deacetylase (example C.1.c, HeLa nuclear extracts); assay type: biochemical; conditions: HeLa nuclear extract, 45 min at 37° C.; work performed by Reaction Biology Corp.
Description: The in vitro assay for inhibition of histone deacetylase (see example C.1) measures the inhibition of HDAC enzymatic activity obtained with the compounds of formula (I).
HeLa nuclear extracts (prepared by high salt extraction of HeLa nuclei, J. D. Dignam et al., S. M. Abmayr et al) were incubated with 9 mg/ml in 0.1M KCl, 20 mM HEPES/NaOH, pH 7.9, 20% (v/v) glycerol, 0.2 mM EDTA, 0.5 mM DTT, 0.5 mM PMSF of enzyme. After 45 min, at 37° C. the deacetylation reaction was terminated. The developer reaction (also at 37° C.) was read in a time dependent manner for an hour. For each experiment, controls (containing HeLa nuclear extract and DMSO without compound) and samples (containing compound dissolved in DMSO and HeLa nuclear extract) were run in parallel. The compounds were tested at concentrations between 10^−5M and 10^−12M. The control sample represented 100% of substrate deactylation. For each sample the activity was expressed as a percentage of the mean value of the controls. Appropriate IC50-values (concentration of the drug, needed to reduce the amount of metabolites to 50% of the control) were computed using the Prism program. Herein the effects of test compounds are expressed as pIC50 (the negative log value of the IC50-value) (see Table F-2). Work was performed by Reaction Biology Corp. (Malvern, Pa., USA).

HCT116 cells = experiment: Antiproliferative activity on HCT116 cells (Alamar Blue assay, example C.2); assay type: cell-based; conditions: HCT-116, 96 h, Human colon carcinoma HCT116 cells, 4-day incubation, read-out: Cellular activity pIC50 C.2 (converted)
Description: Cellular activity of the compounds of formula (I) was determined on HCT116 tumour cells using a colorimetric assay for cell toxicity or survival (Mosmann Tim, Journal of Immunological Methods 65: 55-63, 1983) (see example C.2).
Human colon carcinoma HCT116 cells obtained from the ATCC were cultured in McCoy's 5A medium supplemented with 2 mM L-Glutamine, 50 μg/ml gentamicin and 10% heat inactivated fetal calf serum.
Reagents Used in the Alamar Blue Assay
Resazurin was purchased from Aldrich (Prod. No. 199303). Potassium ferrocyanide, potassium ferricyanide, KH2PO4 and K2HPO4 were purchased from Sigma (Prod. Nos. P9387, P8131, P5655 and P8281, respectively).
Potassium Phosphate Buffer 0.1 M (PPB) was made as follows: 2.72 gram KH2PO4 and 13.86 gram K2HPO4 were dissolved in 500 ml milli-Q H2O, the pH was adjusted to pH 7.4 and the volume was brought to 1 liter with milli-Q H2O; the buffer was filter sterilised and stored at room temperature. Resazurin stock solution (PPB-A) was prepared fresh by dissolving 45 mg resazurin in 15 ml PBS. 30 mM potassium ferricyanide (PPB-B) was prepared by dissolving 0.987 gram potassium ferricyanide in 100 ml PPB. 30 mM potassium ferrocyanide (PPB-C) was prepared by dissolving 1.266 gram potassium ferrocyanide in 100 ml PPB.
Mixture of PPB-A, PPB-B and PPB-C was prepared by mixing equal volumes of the respective solutions. Resazurin work solution (herein termed “Alamar Blue” solution) was prepared by diluting said mixture 20× (vol/vol) in PPB and filter sterilising; the Alamar Blue solution could be kept at 4° C. for a maximum of 2 weeks.
Procedure of the Alamar Blue Assay
For experiments in 384 wells plates the cells were seeded at a density of 4.5×10^3 cells/ml in Falcon 384-well culture plates (Life Technologies, Merelbeke, Belgium), black with clear bottom, in 45 μl culture medium. Cells were allowed to adhere to plastic for 24 hr. The tested compound was pre-diluted (1/50 in culture medium) and 5 μl pre-diluted compound was added to the wells. Following 4-day incubation, 10 μl of the Alamar Blue solution was added to each well and the cells were further incubated for 4 hrs (HCT116) or 24 hrs (PC-3) at 37° C. The fluorescence intensity was measured for each well on a Fluorescence plate reader (Fluorskan, Labsystems, 540 nm excitation and 590 nm emission)
The antiproliferative activity was calculated as percentage of remaining viable cells in treated versus control (untreated cells) conditions. Within an experiment, the result for each experimental condition is the mean of 3 replicate wells. When appropriate, the experiments were repeated to establish full concentration-response curves. When appropriate, IC50-values (concentration of the drug, needed to reduce cell growth to 50% of the control) were computed using probit analysis for graded data (Finney, D. J., Probit Analyses, 2nd Ed. Chapter 10, Graded Responses, Cambridge University Press, Cambridge 1962). Herein the effects of test compounds are expressed as pIC50 (the negative log value of the IC50-value) (see Table F-2).

Row | Compound | melting point | Enzymatic activity pIC50 C.1.c. [1] | IC50 (HCT116 cells)
1 | Cn1cc(CNCC2C3CN(c4ncc(C(=O)NO)cn4)CC23)c2ccccc21 (centres unmarked) (as salt: trifluoroacetate) [Compound 1] | 150 °C |  | 
2 | Cn1cc(CNC2C3CN(c4ncc(C(=O)NO)cn4)CC32)c2ccccc21 (centres unmarked) (as salt: trifluoroacetate) [Compound 2] | 157 °C |  | 
3 | Cn1cc(CNCC2C3CN(c4ncc(C(=O)NO)cn4)CC23)c2ccccc21 (centres unmarked) [Compound 1] |  | 8.39 | 89.1 nM
4 | Cn1cc(CNC2C3CN(c4ncc(C(=O)NO)cn4)CC32)c2ccccc21 (centres unmarked) [Compound 2] |  | 8.62 | 661 nM

Second part, the compound after the results:

Row | melting point | Enzymatic activity pIC50 C.1.c. [1] | IC50 (HCT116 cells) | Compound
5 |  |  | 75.9 nM | Cn1cc(CNCC2C3CN(c4ncc(C(=O)NO)cn4)CC23)c2cc(Cl)ccc21 (centres unmarked) [Compound 3]
6 |  |  | 81.3 nM | Cn1cc(CNCC2C3CN(c4ncc(C(=O)NO)cn4)CC23)c2cc(F)ccc21 (centres unmarked) [Compound 4]
7 |  |  | 398 nM | Cn1cc(CNCC2C3CN(c4ncc(C(=O)NO)cn4)CC23)c2cc(C#N)ccc21 (centres unmarked) [Compound 5]
8 |  |  | 35.5 nM | CCCn1cc(CNCC2C3CN(c4ncc(C(=O)NO)cn4)CC23)c2cc(Cl)ccc21 (centres unmarked) [Compound 6]
9 |  |  | 25.7 nM | CCCn1cc(CNCC2C3CN(c4ncc(C(=O)NO)cn4)CC23)c2cc(F)ccc21 (centres unmarked) [Compound 7]
